{"source": "paper PMC4186413", "about": "“Identification of metabolic pathways and enzyme systems involved in the in vitro human hepatic metabolism of dronedarone, a potent new oral antiarrhythmic drug” (Pharmacology Research & Perspectives, 2014)", "key": {"CYP3A4": {"test_system": "CYP3A4", "assay": "Contribution of CYP3A4 to hepatocyte clearance (ketoconazole inhibitory effect)", "format": "in vitro ADME, human", "settings": "for Effect of ketoconazole on metabolism in hepatocytes: 5 μmol/L drug; for fm CYP3A4, Mean ± SD: mean of hepatocyte preparations", "experimental": "(§1) Experiments were performed in 48-well plastic plates coated with rat tail Collagen type I. Plates were seeded with 0.16 × 10^5 hepatocytes per well in a final volume of 0.2 mL and incubated at 37°C under a 95% humidified air and 5% CO2 atmosphere. After 3 h during which cells were allowed to attach, the medium was renewed with 0.1 mL serum-free medium. Then, the investigated drug or metabolic probe(s) were added directly to the incubation medium in the absence or the presence of inhibitors such as either ketoconazole as a specific and potent CYP3A inhibitor (3 μmol/L final concentration), clorgyline (0.25 μmol/L final concentration) as a potent MAO-A inhibitor or ABT as a potent but nonselective CYP isoforms inhibitor (1 mmol/L final concentration) (Fabre et al. [1988]; Bourrié et al. [1996]; Klieber et al. [2008]). Regardless of the final concentration investigated, the final solvent (DMSO) concentration never exceeded 0.2% (v/v).\n(§2) To determine the metabolism of the different compounds (metabolic probes, dronedarone, N-debutyl-dronedarone, propanoic acid-dronedarone, phenol-dronedarone, and C-dealkyl-dronedarone), kinetic studies were performed over 0–24 h. For each time point, 0.1 mL of acetonitrile was added to the specific well for protein precipitation, and both extracellular medium and the cell fraction were scraped together. Cell extracts were transferred to a glass tube and stored at −20°C until analysis. Before analysis, cell homogenates were sonicated for a few seconds, homogenized and centrifuged at 6000 g for 10 min. Supernatant fluids were then analyzed for the different drugs and their specific metabolites.\n(§3) The fraction metabolized (fm) by MAO, CYP3A or total CYPs was determined using the following equation: [drawing 3] where: kei is the elimination rate constant (expressed in h^−1) in the presence of the inhibitor.\n(§4) The kinetics of drug disappearance were investigated using four different cryopreserved human hepatocyte preparations in primary cultures following incubation with either dronedarone or its metabolites at a concentration of 5 μmol/L. Incubations were performed either in the absence, that is control conditions, or in the presence of enzyme system inhibitors such as 3 μmol/L ketoconazole (specific and potent inhibitor of CYP3A4/5), 1 mmol/L ABT (a potent and […] inhibitor of total CYPs), or 0.25 μmol/L clorgyline (a potent MAO-A inhibitor) (Dorris [1982]). Kinetic studies were performed over 24 h."}, "MAO": {"target": "T1, MAO (Homo sapiens, UniProt P21397)", "T1 construct": "host or cells: cryopreserved human hepatocytes in primary culture", "T1 sequence (P21397 1-527)": "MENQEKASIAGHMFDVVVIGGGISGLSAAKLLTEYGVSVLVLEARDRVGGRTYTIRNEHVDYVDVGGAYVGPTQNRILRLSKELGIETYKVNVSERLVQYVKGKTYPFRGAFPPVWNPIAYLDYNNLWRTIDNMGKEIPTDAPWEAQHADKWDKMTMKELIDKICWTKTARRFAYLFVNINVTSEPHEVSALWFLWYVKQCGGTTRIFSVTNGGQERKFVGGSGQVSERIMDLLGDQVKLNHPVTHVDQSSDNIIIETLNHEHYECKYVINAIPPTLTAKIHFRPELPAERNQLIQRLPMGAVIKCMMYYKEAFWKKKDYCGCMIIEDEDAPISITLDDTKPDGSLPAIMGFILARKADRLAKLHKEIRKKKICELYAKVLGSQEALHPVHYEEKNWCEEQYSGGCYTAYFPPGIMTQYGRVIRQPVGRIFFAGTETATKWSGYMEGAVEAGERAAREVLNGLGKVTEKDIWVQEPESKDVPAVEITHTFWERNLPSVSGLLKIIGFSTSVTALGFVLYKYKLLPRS", "assay": "Contribution of MAO to hepatocyte clearance (clorgyline inhibitory effect)", "format": "in vitro ADME", "settings": "for Effect of clorgyline on metabolism in hepatocytes: 5 μmol/L drug; for fm MAO, Mean ± SD: mean of hepatocyte preparations", "experimental": "as §1, §2, §3, §4"}, "FMO-1, -3, and -5": {"test_system": "FMO-1, -3, and -5", "assay": "Oxidation by recombinant human FMOs", "format": "in vitro ADME", "settings": "1 mg/mL, 5 μmol/L, 30 min, NADPH", "source_text": "Recombinant human CYPs (Supersomes™; BD Gentes, Woburn, MA: CYP1A1, CYP1A2, CYP2A6, CYP2B6, CYP2C8, CYP2C9, CYP2C18, CYP2C19, CYP2D6, CYP2E1, CYP3A4 and CYP3A5), FMOs (Supersomes™: FMO1, FMO3, FMO5), MAOs (Supersomes™: MAO-A and MAO-B), and UGTs (Supersomes™: UGT1A1, UGT1A3, UGT1A4, UGT1A6, UGT1A7, UGT1A8, UGT1A9, UGT1A10, UGT2B4, UGT2B7, UGT2B15, and UGT2B17) expressed in baculovirus-infected insect cells and control microsomes from insect cells infected with wild-type baculovirus were all obtained from BD Gentest (Woburn, MA).\nFor oxidative pathways, the assay mixture was composed of human liver microsomes (1 mg·m·L^−1) or microsomes of baculovirus-infected cells expressing human enzymes (100 pmol·mL^−1 for CYPs and 1 mg·mL^−1 for FMOs and MAOs), nicotinamide adenine dinucleotide phosphate reduced form (NADPH) (1 mmol/L), 100 mmol/L potassium phosphate (pH 7.4), and 5 μmol/L of the investigated compound dissolved in DMSO in a final volume of 500 μL.\nThe final concentration of DMSO in the reaction mixture was less than 1% (v/v). Initial rate conditions with respect to time and protein concentration for both the disappearance of unchanged drug and the formation of respective metabolites were established in preliminary studies. The enzyme reaction was initiated by addition of NADPH (10 mmol/L aqueous solution) to achieve a final concentration of 1 mmol/L for oxidative CYP- and FMO-dependent reactions or by the drug for MAO-dependent reactions, incubated at 37°C and stopped after 0–30 min by addition of one volume of ice-cold acetonitrile.\nIn human liver microsomes and recombinant isoforms, the percentage of metabolism was determined on the basis of unchanged drug disappearance, using the following equation [drawing 1] where UDt = 30 min represents the unchanged drug peak area after a 30-min incubation period and UDt = 0, the unchanged drug peak area at t = 0.\nTo identify the specific isoforms that are capable of oxidizing dronedarone and its metabolites, assays were performed using c-DNA-expressed isoforms belonging to CYP- (CYP1A1, -1A2, -2A6, -2B6, -C8, -2C9, -2C18, -2C19, -2D6, -2E1, -3A4, and -3A5), FMO- (FMO-1, -3, and -5) and MAO- (MAO-A and MAO-B) families.\nFigure 5 Contribution of individual CYPs, FMOs and MAOs to the oxidation of dronedarone and its metabolites. Individual CYPs (100 pmol/mL), FMOs (1 mg/mL) and MAOs (1 mg/mL) were incubated with either dronedarone (A) or its metabolites, N-debutyl-dronedarone (B), propanoic acid-dronedarone (C), and phenol-dronedarone (D), at a concentration of 5 μmol/L, for 30 min at 37°C in the presence of NADPH, except for MAOs where incubations were performed in the absence of cofactor. Unchanged drugs were quantified by LC/MS-MS relative to the synthetic references as described in Materials and Methods. Data are expressed as the percentage of oxidation."}, "[1]": {"settings": "HU-1358, 0.25 μmol/L clorgyline"}, "[2]": {"settings": "IVT-IBG, 0.25 μmol/L clorgyline"}}}
{"smiles": "CCCCc1oc2ccc(NS(C)(=O)=O)cc2c1C(=O)c1ccc(OCCC(=O)O)cc1", "note": "[Propanoic acid-dronedarone]", "values": [{"measurement": "Effect of ketoconazole on metabolism in hepatocytes", "setting": "CYP3A4; 3 μmol/L ketoconazole", "value": "very minor inhibitory effect"}, {"measurement": "fm CYP3A4", "setting": "CYP3A4; BD-91, 3 μmol/L ketoconazole", "value": 36, "unit": "%"}, {"measurement": "fm CYP3A4", "setting": "CYP3A4; BD-296, 3 μmol/L ketoconazole", "value": 41, "unit": "%"}, {"measurement": "fm CYP3A4", "setting": "CYP3A4; HU-1358, 3 μmol/L ketoconazole", "value": 33, "unit": "%"}, {"measurement": "fm CYP3A4", "setting": "CYP3A4; IVT-IBG, 3 μmol/L ketoconazole", "value": 34, "unit": "%"}, {"measurement": "fm CYP3A4, Mean ± SD", "setting": "CYP3A4; 3 μmol/L ketoconazole", "value": "36 ± 3", "unit": "%"}, {"measurement": "Effect of clorgyline on metabolism in hepatocytes", "setting": "MAO; 0.25 μmol/L clorgyline", "value": "no inhibitory effect"}, {"measurement": "fm MAO", "setting": "MAO; BD-91, 0.25 μmol/L clorgyline", "value": 12, "unit": "%"}, {"measurement": "fm MAO", "setting": "MAO; BD-296, 0.25 μmol/L clorgyline", "value": 0, "unit": "%"}, {"measurement": "fm MAO", "setting": "MAO; [1]", "value": 0, "unit": "%"}, {"measurement": "fm MAO", "setting": "MAO; [2]", "value": 0, "unit": "%"}, {"measurement": "fm MAO, Mean ± SD", "setting": "MAO; 0.25 μmol/L clorgyline", "value": "3 ± 5", "unit": "%"}, {"measurement": "Oxidation by FMOs", "setting": "FMO-1, -3, and -5", "value": "Neither other CYPs, nor FMOs and MAOs metabolized propanoic acid-dronedarone to any significant extent"}]}
{"smiles": "CCCCN(CCCC)CCCOc1ccc(C(=O)O)cc1", "note": "[C-dealkyl-dronedarone]", "values": [{"measurement": "Effect of ketoconazole on metabolism in hepatocytes", "setting": "CYP3A4; 3 μmol/L ketoconazole", "value": "no effect"}, {"measurement": "Effect of clorgyline on metabolism in hepatocytes", "setting": "MAO; 0.25 μmol/L clorgyline", "value": "no effect"}, {"measurement": "Oxidation by FMOs", "setting": "FMO-1, -3, and -5", "value": "not metabolized"}]}
{"smiles": "CCCCNCCCOc1ccc(C(=O)c2c(CCCC)oc3ccc(NS(C)(=O)=O)cc23)cc1", "note": "[N-debutyl-dronedarone]", "values": [{"measurement": "Effect of ketoconazole on metabolism in hepatocytes", "setting": "CYP3A4; 3 μmol/L ketoconazole", "value": "no inhibitory effect"}, {"measurement": "fm CYP3A4", "setting": "CYP3A4; BD-91, 3 μmol/L ketoconazole", "value": 7, "unit": "%"}, {"measurement": "fm CYP3A4", "setting": "CYP3A4; BD-296, 3 μmol/L ketoconazole", "value": 4, "unit": "%"}, {"measurement": "fm CYP3A4", "setting": "CYP3A4; HU-1358, 3 μmol/L ketoconazole", "value": 8, "unit": "%"}, {"measurement": "fm CYP3A4", "setting": "CYP3A4; IVT-IBG, 3 μmol/L ketoconazole", "value": 0, "unit": "%"}, {"measurement": "fm CYP3A4, Mean ± SD", "setting": "CYP3A4; 3 μmol/L ketoconazole", "value": "5 ± 3", "unit": "%"}, {"measurement": "Effect of clorgyline on metabolism in hepatocytes", "setting": "MAO; 0.25 μmol/L clorgyline", "value": "potently inhibited"}, {"measurement": "fm MAO", "setting": "MAO; BD-91, 0.25 μmol/L clorgyline", "value": 88, "unit": "%"}, {"measurement": "fm MAO", "setting": "MAO; BD-296, 0.25 μmol/L clorgyline", "value": 80, "unit": "%"}, {"measurement": "fm MAO", "setting": "MAO; [1]", "value": 86, "unit": "%"}, {"measurement": "fm MAO", "setting": "MAO; [2]", "value": 83, "unit": "%"}, {"measurement": "fm MAO, Mean ± SD", "setting": "MAO; 0.25 μmol/L clorgyline", "value": "84 ± 3", "unit": "%"}, {"measurement": "Oxidation by FMOs", "setting": "FMO-1, -3, and -5", "value": "Neither other CYPs nor FMOs metabolized N-debutyl-dronedarone to any significant extent"}]}
{"smiles": "CCCCc1oc2ccc(NS(C)(=O)=O)cc2c1C(=O)c1ccc(O)cc1", "note": "[Phenol-dronedarone]", "values": [{"measurement": "Effect of ketoconazole on metabolism in hepatocytes", "setting": "CYP3A4; 3 μmol/L ketoconazole", "value": "did not contribute"}, {"measurement": "Effect of clorgyline on metabolism in hepatocytes", "setting": "MAO; 0.25 μmol/L clorgyline", "value": "did not contribute"}, {"measurement": "Oxidation by FMOs", "setting": "FMO-1, -3, and -5", "value": "contributed to a very small extent"}]}
{"smiles": "CCCCc1oc2ccc(NS(C)(=O)=O)cc2c1C(=O)c1ccc(OCCCN(CCCC)CCCC)cc1.Cl", "note": "[Dronedarone, N-(2-Butyl-3-(4-(3-(dibutylamino)propoxy)benzoyl)-5-benzofuranyl)methanesulfonamide, hydrochloride]", "values": [{"measurement": "Effect of ketoconazole on metabolism in hepatocytes", "setting": "CYP3A4; 3 μmol/L ketoconazole", "value": "predominant inhibitory effect"}, {"measurement": "fm CYP3A4", "setting": "CYP3A4; BD-91, 3 μmol/L ketoconazole", "value": 95, "unit": "%"}, {"measurement": "fm CYP3A4", "setting": "CYP3A4; BD-296, 3 μmol/L ketoconazole", "value": 95, "unit": "%"}, {"measurement": "fm CYP3A4", "setting": "CYP3A4; HU-1358, 3 μmol/L ketoconazole", "value": 84, "unit": "%"}, {"measurement": "fm CYP3A4", "setting": "CYP3A4; IVT-IBG, 3 μmol/L ketoconazole", "value": 80, "unit": "%"}, {"measurement": "fm CYP3A4, Mean ± SD", "setting": "CYP3A4; 3 μmol/L ketoconazole", "value": "89 ± 7", "unit": "%"}, {"measurement": "Effect of clorgyline on metabolism in hepatocytes", "setting": "MAO; 0.25 μmol/L clorgyline", "value": "minor inhibitory effect"}, {"measurement": "fm MAO", "setting": "MAO; BD-91, 0.25 μmol/L clorgyline", "value": 18, "unit": "%"}, {"measurement": "fm MAO", "setting": "MAO; [1]", "value": 23, "unit": "%"}, {"measurement": "fm MAO", "setting": "MAO; [2]", "value": 43, "unit": "%"}, {"measurement": "fm MAO, Mean ± SD", "setting": "MAO; 0.25 μmol/L clorgyline", "value": "29 ± 14", "unit": "%"}, {"measurement": "Oxidation by FMOs", "setting": "FMO-1, -3, and -5", "value": "not involved"}]}
